US11014908B2, “Chemical compounds” (Pfizer Inc., priority 2018, dated 2021)

How the values were obtained:
Hb in dog whole blood = target: T1, Hb in dog whole blood (Canis lupus familiaris, UniProt P60524+P60529); experiment: Whole blood oxygen affinity assay (Hemox analyzer), dog blood; conditions: 1 mM compound, 1 hour at 25 C, relative to DMSO
T1 construct: measured in human, dog, and mouse whole blood; from tissue; host or cells: dog whole blood
Source text: (§1) Whole Blood Oxygen Affinity Assay
(§2) Oxygen affinity is a marker of the ability of Hb to bind and release oxygen in solution. It can be determined in whole blood by measuring the percentage of oxygenated and deoxygenated Hb present at a given oxygen concentration. Oxygen affinity is expressed as the p50, the partial pressure of oxygen at which 50% of the Hb in solution has oxygen bound, or the p20, the partial pressure of oxygen at which 20% of the Hb in solution has oxygen bound.
(§3) To determine the effects of compounds of the invention on oxygen affinity the p50 and p20 were measured in human, dog, and mouse whole blood using a Hemeox Analyzer (TCS Scientific). The blood was spiked with a compound of the invention to a concentration of 1 mM and incubated for 1 hour at 25 C with constant rotation. A concentration of 1 mM of compound was selected to approximate 20% hemoglobin occupancy in whole blood. Controls with the same concentration of DMSO, but no compound were incubated in the same way at the same time. Following incubation, samples were immediately assayed for oxygen affinity using the Hemox analyzer. […] Once samples had reached an pO2 of >150 torr, the measurement was initiated by switching to N2, and the percent oxyhemoglobin as a function of partial pressure was recorded. The p20 and p50 of each sample were recorded from the instrument readout. […]

human HbA = human HbA (Homo sapiens, UniProt P68871+P69905); experiment: Co-crystallization with HbA; conditions: 1.85 Å co-crystal structure with human HbA
Source text: Co-Crystallization with HbA
The binding of the compound of Example 58 to hemoglobin (Hb) was further investigated through co-crystallization experiments. Given the structural and functional similarity of HbS and HbA, and the large quantity of material needed for structural studies, purified HbA was utilized for these studies.
HbA with Example 58 was crystallized according to published protocols (Lee et al. “Crowning proteins: modulating the protein surface properties using crown ethers”, Angew Chem Int Ed Engl 2014; 53(48):13054-13058). Briefly, 20 mg/mL HbA in 20 mM Tris-HCl (pH 8.0) was mixed with equal volume of 50 mM 18-crown-6 solution and incubated at 20° C. for 20 minutes. Example 58 was then added to a final concentration of 1.5 mM and further incubated for an additional 1 hr. Crystallization was performed at 20° C. using hanging drop vapor diffusion method by mixing equal volumes of protein and reservoir solution containing 0.1 M Tris-HCl (pH 8.0), 0.2 M Li2SO4 and 30-32% PEG 3350. Crystals grew to their maximum size in ˜2 days and the crystals were further soaked overnight with 10 mM Example 58. Diffraction data were collected at the Argonne National Laboratory Advanced Photon Source, beamline 17-ID. The data was processed using autoPROC (Global Phasing Limited) and the structure was solved using 3WHM (PDB code) as a starting model. […]

Hb in mouse whole blood = experiment: Whole blood oxygen affinity assay (Hemox analyzer), mouse blood; conditions: 1 mM compound, 1 hour at 25 C, relative to DMSO
Source text: as §1, §2, §3

Reduction in p20 (%) Dog (Hb in dog whole blood): 10 ± 6%
Reduction in p50 (%) Dog (Hb in dog whole blood): 6 ± 6%
SMILES: C[C@H](Oc1cc2cc(F)ccc2nc1N)c1nc(O)ccc1-n1cccn1 [Example 58, 6-{(1S)-1-[(2-amino-6-fluoroquinolin-3-yl)oxy]ethyl}-5-(1H-pyrazol-1-yl)pyridin-2-ol]
Hb conformation bound in co-crystal structure (human HbA): binds to the oxygenated (R state) conformation of Hb
Reduction in p20 (%) Mouse (Hb in mouse whole blood): 11 ± 2%
Reduction in p50 (%) Mouse (Hb in mouse whole blood): 5 ± 3%
